Test results taken from patent US12595230B2, “Substituted 6,7-dihydro-5H-benzo[7]annulene compounds and their derivatives, processes for their preparation and therapeutic uses thereof” (Sanofi, priority 2020, dated 2026).

Target: T1, ERα (Homo sapiens, UniProt P03372)
T1 construct: host or cells: MCF7
T1 sequence (P03372 1-595): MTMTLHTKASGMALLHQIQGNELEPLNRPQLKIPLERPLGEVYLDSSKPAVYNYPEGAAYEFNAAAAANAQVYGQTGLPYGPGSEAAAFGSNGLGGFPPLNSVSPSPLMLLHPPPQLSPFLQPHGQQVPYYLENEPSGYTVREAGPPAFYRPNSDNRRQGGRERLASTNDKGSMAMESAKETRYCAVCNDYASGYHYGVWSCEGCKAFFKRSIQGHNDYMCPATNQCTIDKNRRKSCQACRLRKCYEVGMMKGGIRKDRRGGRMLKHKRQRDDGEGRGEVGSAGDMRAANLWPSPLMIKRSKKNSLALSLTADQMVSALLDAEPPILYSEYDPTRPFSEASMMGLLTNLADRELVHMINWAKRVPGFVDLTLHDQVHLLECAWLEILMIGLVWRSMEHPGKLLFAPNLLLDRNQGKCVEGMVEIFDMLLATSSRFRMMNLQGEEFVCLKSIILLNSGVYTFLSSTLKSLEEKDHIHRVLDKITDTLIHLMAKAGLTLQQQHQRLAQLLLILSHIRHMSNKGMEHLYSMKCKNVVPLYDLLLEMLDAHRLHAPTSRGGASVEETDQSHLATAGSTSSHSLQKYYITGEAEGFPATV
Experiment: Estrogen receptor degradation activity: breast cancer cell ERα in cell western assay (MCF7 cells)
Type: cell-based
Details: for % Degradation At 0.3 μM: 4 hours, relative to fulvestrant 0.1 μM positive control; for DC50: 4 hours post compound addition, concentration which degrades 50% of the estrogen receptor, read-out: Degradation IC50
Protocol: Test: Estrogen Receptor Degradation Activity Said test involves measuring the in vitro degradation activity of the compounds of the Table 1a. The measurements of the degradation activities were made using a breast cancer cell ERα in cell western assay as described hereunder. MCF7 cells (ATCC) were seeded in 384 wells microplate (collagen coated) at a concentration of 10000 cells/30 μL per well in red phenol free MEM alpha medium (invitrogen) containing 5% charcoal dextran striped FBS. The following day, 9 points serial 1:5 dilution of each compound was added to the cells in 2.5p L at final concentrations ranging from 0.3-0.0000018 μM (in table 2), or 0.1 μM for fulvestrant (using as positive control). At 4 hours post compound addition the cells were fixed by adding 25 μL of formalin (final concentration 5% formalin containing 0.1% triton) for 10 minutes at room temperature and then washed twice with PBS. Then, 50 μL of LI-COR blocking buffer containing 0.1% Triton was added to plate for 30 minutes at room temperature. LI-COR blocking buffer was removed and cells were incubated overnight at cold room with 50 μL anti-ER rabbit monoclonal antibody (Thermo scientific MA1-39540) diluted at 1:1000 in LI-COR blocking buffer containing 0.1% tween-20. Wells which were treated with blocking buffer but no antibody were used as background control. Wells were washed twice with PBS (0.1% tween-20) and incubated at 37° C. for 60 minutes in LI-COR (0.1% tween-20) containing goat anti-rabbit antibody Alexa 488 (1:1000) and Syto-64 a DNA dye (2 μM final concentration). Cells were then washed 3 times in PBS and scanned in ACUMEN explorer (TTP-Labtech). Integrated intensities in the green fluorescence and red fluorescence were measured to determine the levels of ERα and DNA respectively. The degradation activity with respect to estrogen receptors in this test is given by the concentration which degrades 50% of the estrogen receptor (or IC50) in nM. […] DMSO−fulvestrant)).

Row | Structure (SMILES) | % Degradation At 0.3 μM [%] | DC50 [nM]
1 | O=C(O)c1ccc2c(c1)CCCC(c1ccc(Cl)cc1Cl)=C2c1ccc(C(O)C2CN(CCCF)C2)cc1 (single isomer, unassigned) [Example 41, 8-(2,4-dichlorophenyl)-9-(4-((1-(3-fluoropropyl)azetidin-3-yl)(hydroxy)methyl)phenyl)-6,7-dihydro-5H-benzo[7]annulene-3-carboxylic acid] | 95 | 1.6
2 | O=C(O)c1ccc2c(c1)CCCC(c1ccc(Cl)cc1Cl)=C2c1ccc(C(O)C2CN(CCCF)C2)cc1 (single isomer, unassigned) [Example 42, 8-(2,4-dichlorophenyl)-9-(4-((1-(3-fluoropropyl)azetidin-3-yl)(hydroxy)methyl)phenyl)-6,7-dihydro-5H-benzo[7]annulene-3-carboxylic acid] | 94 | 3.3
3 | O=C(O)c1ccc2c(c1)CCCC(c1ccc(Cl)cc1Cl)=C2c1ccc(C(F)C2CN(CCCF)C2)cc1 (single isomer, unassigned) [Example 43, 8-(2,4-dichlorophenyl)-9-(4-(fluoro(1-(3-fluoropropyl)azetidin-3-yl)methyl)phenyl)-6,7-dihydro-5H-benzo[7]annulene-3-carboxylic acid] | 90 | 0.4
4 | O=C(O)c1ccc2c(c1)CCCC(c1ccc(Cl)cc1Cl)=C2c1ccc(C(F)C2CN(CCCF)C2)cc1 (single isomer, unassigned) [Example 44, 8-(2,4-dichlorophenyl)-9-(4-(fluoro(1-(3-fluoropropyl)azetidin-3-yl)methyl)phenyl)-6,7-dihydro-5H-benzo[7]annulene-3-carboxylic acid] | 90 | 0.5
5 | CC1CCc2cc(C(=O)O)ccc2C(c2ccc(CC3CN(CCCF)C3)cc2)=C1c1ccc(Cl)cc1Cl (single isomer, unassigned) [Example 303, 8-(2,4-dichlorophenyl)-9-(4-((1-(3-fluoropropyl)azetidin-3-yl)methyl)phenyl)-7-methyl-6,7-dihydro-5H-benzo[7]annulene-3-carboxylic acid] | 90 | 0.4
6 | CC(C)C1CCc2cc(C(=O)O)ccc2C(c2ccc(CC3CN(CCCF)C3)cc2)=C1c1ccc(Cl)cc1Cl (single isomer, unassigned) [Example 321, 8-(2,4-dichlorophenyl)-9-(4-((1-(3-fluoropropyl)azetidin-3-yl)methyl)phenyl)-7-isopropyl-6,7-dihydro-5H-benzo[7]annulene-3-carboxylic acid] | 88 | 0.5
7 | CC(C)C1CCc2cc(C(=O)O)ccc2C(c2ccc(CC3CN(CCCF)C3)cc2)=C1c1ccc(Cl)cc1Cl (single isomer, unassigned) [Example 322, 8-(2,4-dichlorophenyl)-9-(4-((1-(3-fluoropropyl)azetidin-3-yl)methyl)phenyl)-7-isopropyl-6,7-dihydro-5H-benzo[7]annulene-3-carboxylic acid] | 87 | 0.6
8 | CC1CCc2cc(C(=O)O)ccc2C(c2ccc(CC3CN(CCCF)C3)cc2)=C1c1ccc(Cl)cc1 (single isomer, unassigned) [Example 327, 8-(4-chlorophenyl)-9-(4-((1-(3-fluoropropyl)azetidin-3-yl)methyl)phenyl)-7-methyl-6,7-dihydro-5H-benzo[7]annulene-3-carboxylic acid] | 86 | 4.7
9 | CCC1CCc2cc(C(=O)O)ccc2C(c2ccc(CC3CN(CCCF)C3)cc2)=C1c1ccc(Cl)cc1 (single isomer, unassigned) [Example 330, 8-(4-chlorophenyl)-7-ethyl-9-(4-((1-(3-fluoropropyl)azetidin-3-yl)methyl)phenyl)-6,7-dihydro-5H-benzo[7]annulene-3-carboxylic acid] | 91 | 7
10 | CC(O)(c1ccc(C2=C(c3ccc(Cl)cc3Cl)CCCc3cc(C(=O)O)ccc32)cc1)C1CN(CCCF)C1.Cl (single isomer, unassigned; isomer 1) [Example 235, 8-(2,4-dichlorophenyl)-9-(4-(1-(1-(3-fluoropropyl)azetidin-3-yl)-1-hydroxyethyl)phenyl)-6,7-dihydro-5H-benzo[7]annulene-3-carboxylic acid, Hydrochloride Isomer 1] | 62 | 4.5
11 | NC(c1ccc(C2=C(c3ccc(Cl)cc3Cl)CCCc3cc(C(=O)O)ccc32)cc1)C1CN(CCCF)C1 (single isomer, unassigned; isomer 1) [Example 243, 9-(4-(amino(1-(3-fluoropropyl)azetidin-3-yl)methyl)phenyl)-8-(2,4-dichlorophenyl)-6,7-dihydro-5H-benzo[7]annulene-3-carboxylic Acid Isomer 1] | 78 | 15.6

The remaining molecules from weak to strong by DC50, led by results:

Row | % Degradation At 0.3 μM [%] | DC50 [nM] | Structure (SMILES)
12 | 89 | 1.3 | CCC1CCc2cc(C(=O)O)ccc2C(c2ccc(CC3CN(CCCF)C3)cc2)=C1c1ccc(Cl)cc1 (single isomer, unassigned) [Example 329, 8-(4-chlorophenyl)-7-ethyl-9-(4-((1-(3-fluoropropyl)azetidin-3-yl)methyl)phenyl)-6,7-dihydro-5H-benzo[7]annulene-3-carboxylic acid]
13 | 86 | 0.9 | O=C(O)c1ccc2c(c1)CCCC(C1C[C@H]3CCC[C@H]3C1)=C2c1ccc(CC2CN(CCCF)C2)cc1 (single isomer, unassigned) [Example 336, 9-(4-((1-(3-fluoropropyl)azetidin-3-yl)methyl)phenyl)-8-(octahydropentalen-2-yl)-6,7-dihydro-5H-benzo[7]annulene-3-carboxylic acid]
14 | 90 | 0.7 | O=C([O-])c1ccc2c(c1)CCCC(C1=C[C@@H]3CCC[C@@H]3C1)=C2c1ccc(CC2CN(CCCF)C2)cc1.[Na+] (relative stereo) [Example 299, sodium 9-(4-((1-(3-fluoropropyl)azetidin-3-yl)methyl)phenyl)-8-(cis-1,3a,4,5,6,6a-hexahydropentalen-2-yl)-6,7-dihydro-5H-benzo[7]annulene-3-carboxylate]
15 | 90 | 0.6 | CC1CCc2cc(C(=O)O)ccc2C(c2ccc(CC3CN(CCCF)C3)cc2)=C1c1ccc(Cl)cc1Cl (single isomer, unassigned) [Example 302, 8-(2,4-dichlorophenyl)-9-(4-((1-(3-fluoropropyl)azetidin-3-yl)methyl)phenyl)-7-methyl-6,7-dihydro-5H-benzo[7]annulene-3-carboxylic acid]
16 | 75 | 0.6 | COC(c1ccc(C2=C(c3ccc(Cl)cc3Cl)CCCc3cc(C(=O)O)ccc32)cc1)C1CN(CCCF)C1 (single isomer, unassigned; isomer 1) [Example 227, 8-(2,4-dichlorophenyl)-9-(4-((1-(3-fluoropropyl)azetidin-3-yl)(methoxy)methyl)phenyl)-6,7-dihydro-5H-benzo[7]annulene-3-carboxylic Acid Isomer 1]
17 | 77 | 0.6 | CCOC(c1ccc(C2=C(c3ccc(Cl)cc3Cl)CCCc3cc(C(=O)O)ccc32)cc1)C1CN(CCCF)C1 (single isomer, unassigned; isomer 1) [Example 229, 8-(2,4-dichlorophenyl)-9-(4-(ethoxy(1-(3-fluoropropyl)azetidin-3-yl)methyl)phenyl)-6,7-dihydro-5H-benzo[7]annulene-3-carboxylic Acid Isomer 1]
18 | 88 | 0.4 | CC1CCc2cc(C(=O)O)ccc2C(c2ccc(CC3CN(CCCF)C3)cc2)=C1c1ccc(Cl)cc1 (single isomer, unassigned) [Example 328, 18-(4-chlorophenyl)-9-(4-((1-(3-fluoropropyl)azetidin-3-yl)methyl)phenyl)-7-methyl-6,7-dihydro-5H-benzo[7]annulene-3-carboxylic acid]
